According to patent US20230364069A1, “METHOD FOR TREATING NON-ALCOHOLIC STEATOHEPATITIS THROUGH CO-ADMINISTRATION OF CURCUMIN DERIVATIVE AND TGF-B RECEPTOR INHIBITOR” (UNIVERSITY INDUSTRY FOUNDATION, YONSEI UNIVERSITY WONJU …, priority 2021, published 2023):

Key:
Type in all cases: cell-based
[1] = system: mouse hepatocyte cell lines (AML12); assay: TGF-β-induced fibrosis, co-administration of curcumin derivative and EW-7197 (epithelial-mesenchymal conversion, BODIPY, α-SMA staining, Western blotting); conditions: 2 ng/ml TGF-β, 24 hours, 1 μM Cur or Cur5-8, 10 μM EW-7197; for epithelial-mesenchymal conversion caused by TGF-β: FIG. 8; for liver fibrosis (α-SMA staining, fibrosis marker Western blotting): FIGS. 8, 10, 11
Protocol: Fibrosis was induced in hepatocytes with TGF-β, a curcumin derivative and a TGF-β receptor inhibitor were co-administered, and then fibrosis and fat synthesis and degradation were checked.
Specifically, 2 ng/ml of TGF-β was administered to the cells of Example 1-1, the cells were divided into administration groups of vehicle (Veh), 1 μM curcumin (Cur), 1 μM curcumin 5-8 (Cur5-8), 0.5 μM EW-7197 (EW0.5), 10 μM EW-7197 (EW or EW10), 1 μM curcumin and 0.5 μM EW-7197 (EW0.5+Cur), 1 μM curcumin and 10 μM EW-7197 (EW+Cur or EW10+Cur), 1 μM curcumin 5-8 and 0.5 μM EW-7197 (EW0.5+Cur5-8), 1 μM curcumin 5-8 and 10 μM EW-7197 (EW+Cur5-8 or EW10+Cur5-8), respective samples were administered, and culturing was performed for 24 hours. The control group (Con) was not treated with either TGF-β or the sample. […] After washing with PBS 1×, stained cells were observed.
(§1) In addition, in order to check the degree of fibrosis of hepatocytes, the cells cultured for 24 hours were fixed with 4% paraformaldehyde and then stained by using α-SMA (Santa Cruz Biotechnology, Inc., Dallas, Texas, USA), an Alexafluor 488 (Cell Signaling Technology, Danvers, Massachusetts, USA) antibody, and DAPI (Abcam plc., Cambridge, MA, USA). The cells were mounted with a mounting solution (Fisher Scientific, Hampton, Rockingham, USA), the manufactured sample was photographed using a confocal microscope to obtain photographs of stained cells, and the degree of color development in the photographs of the stained cells was analyzed with the ImageJ program.
In addition, in order to confirm the degree of fibrosis of hepatocytes, the cells cultured for 24 hours were collected, and protein expressions of α-SMA, Collagen I (Coll), p-SMAD2, and p-SMAD3 were checked by Western blotting with fibrosis markers in the same method as described in <Example 1-3>.
In order to check a synergistic effect of inhibiting fibrosis caused by a TGF-β and inhibiting fat accumulation caused thereby in case of co-administration of a curcumin derivative (Cur5-8) and a TGF-β receptor inhibitor (EW-7197), epithelial-mesenchymal conversion of hepatocytes was confirmed through a cell experiment by the method described in Example 1-5, and BODIPY staining and α-SMA staining were performed. Also, protein expressions of α-SMA, Collagen I p-SMAD2, and p-SMAD3 were checked by Western blotting.

[2] = system: mouse hepatocyte cell lines (AML12); assay: TGF-β-induced fibrosis, co-administration of dehydrozingerone derivative and EW-7197 (epithelial-mesenchymal conversion, BODIPY, α-SMA staining); conditions: 2 ng/ml TGF-β, 24 hours, 10 μM EW-7197, 1 μM Cur or Cur5-8, 10 μM DHZ, DHZ103 or DHZ176
Protocol: as §1, with “In addition, the curcumin derivative Cur5-8 of Example 1-4 and the TGF-β receptor inhibitor were co-administered, and then fibrosis and fat synthesis and degradation were checked again. […] The control group (Con) was not treated with either TGF-β or the sample. […] After washing with PBS 1×, stained cells were observed. In addition,” for “In addition,”, “paraformaldehyde and stained by” for “paraformaldehyde and then stained by”

[3] = system: AML12 cells (mouse hepatocyte cell lines); assay: Fibrosis markers by Western blotting after TGF-β induction, TGF-β receptor inhibitor; conditions: 2 ng/ml TGF-β, 10 μM EW-7197, 24 hours, FIG. 2
Protocol: Cell experiments were performed by using AML12, […], and LX-2 cells, a human hepatic stellate cell.
AML12 cells were cultured in a culture medium made by adding 5 ml of insulin (ITS), 40 ng/ml of dexamethasone, 1% penicillin streptomycin (anti-anti), and 10% fetal bovine serum (FBS) to F-12 media (Corning Incorporated, USA, Arizona), a mixture of a DMEM medium and Ham's F-12 at a ratio of 50:50, which is used for culturing hepatocytes or prostate epithelial cells.
Fibrosis was induced in hepatocytes with TGF-β, a TGF-β receptor inhibitor was administered, and fibrosis was checked.
Specifically, 2 ng/ml of TGF-β was administered to the cells of Example 1-1, and administered or not administered with 10 μM EW-7197 (EW), and cultured for 24 hours. The control group (Con) was not treated with either TGF-β or the sample. […] A protein concentration was measured by BCA assay (Pierce Biotechnology Inc). […] Then, the membranes were washed, briefly incubated with Pico Enhanced Peroxidase Detection (EPD) Western reagent (ELPISBIOTECH. INC.) according to the manufacturer's procedure, and quantified by using an image analyzer (ImageQuant™ LAS 500, GE Healthcare Bio-Sciences AB, Uppsala, Sweden). β-actin was used as an internal control. Densitometry of protein intensity was quantified by using ImageJ (National Institutes of Health). […]

Compound	epithelial-mesenchymal conversion caused by TGF-β [1]	liver fibrosis (α-SMA staining, fibrosis marker Western blotting) [1]	fat accumulation / adipogenesis in cells (BODIPY staining) ([1]; FIGS. 8, 9)	epithelial-mesenchymal conversion caused by TGF-β ([2]; FIG. 16)	fat accumulation / adipogenesis in cells (BODIPY staining) ([2]; FIGS. 16, 17)	liver fibrosis (α-SMA staining) ([2]; FIGS. 16, 18)	protein expressions of α-SMA, Coll, p-SMAD2, and p-SMAD3 increased by TGF-β [3]
COc1cc(/C=C/C(=O)c2cccc(NC(=O)C(C)C)c2)ccc1O [Cur5-8, N-{3-[(2E)-3-(4-hydroxy-3-methoxyphenyl)prop-2-enoyl]phenyl}-2-methylpropanamide]	not inhibited	liver fibrosis was induced					
Cc1cccc(-c2[nH]c(CNc3ccccc3F)nc2-c2ccc3ncnn3c2)n1 [EW-7197, N-(2-fluorophenyl)-5-(6-methyl-2-pyridinyl)-4-[1,2,4]triazolo[1,5-a]pyridin-6-yl-1H-imidazole-2-methanamine]	inhibited	inhibited	fat accumulation in cells was exhibited	inhibited	fat accumulation in cells was exhibited	inhibited	inhibited
